In ChEMBL document CHEMBL1154295, “Potent and selective steroidal inhibitors of 17beta-hydroxysteroid dehydrogenase type 7, an enzyme that catalyzes the reduction of the key hormones estrone and dihydrotestosterone” (J Med Chem, 2009) one finds inhibition data, which are given here for 55 compounds.

The term inhibition denotes the drop in the measured response relative to a control, in per cent. Low values mean a response near the control, high ones a response far below the control.

Structures are written as SMILES.

The first test has as its target T1, 3-keto-steroid reductase/17-beta-hydroxysteroid dehydrogenase 7 (Homo sapiens) (UniProt P56937).
T1 sequence (whole entry): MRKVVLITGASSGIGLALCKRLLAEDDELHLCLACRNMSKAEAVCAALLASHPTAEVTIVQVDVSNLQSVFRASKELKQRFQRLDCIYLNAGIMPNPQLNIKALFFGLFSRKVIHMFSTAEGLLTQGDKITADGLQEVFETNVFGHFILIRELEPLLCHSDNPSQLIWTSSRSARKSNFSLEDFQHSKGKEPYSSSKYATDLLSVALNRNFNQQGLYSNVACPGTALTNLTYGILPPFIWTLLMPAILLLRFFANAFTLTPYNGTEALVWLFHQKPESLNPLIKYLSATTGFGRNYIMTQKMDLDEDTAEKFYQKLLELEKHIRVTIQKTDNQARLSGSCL
Particulars: HEK293, at 0.3 µM.
Description: Inhibition of human 17beta-HSD7 expressed in HEK293 cells assessed as inhibition of reduction of [14C]estrone into [14C]estradiol at 0.3 uM after 7 hrs
`CCCCCCCN(C(=O)C1CCCCC1)[C@H]1CC[C@H]2[C@@H]3CC[C@H]4N(C)C(=O)CC[C@]4(C)[C@H]3CC[C@]12C` showed an inhibition of 0%. Regarding `CCCCCCCCCCN(C(=O)c1ccc(F)cc1)[C@H]1CC[C@H]2[C@@H]3CC[C@H]4N(C)C(=O)CC[C@]4(C)[C@H]3CC[C@]12C`, the inhibition is 71%. `CCCCCCCCCCN(C(=O)c1ccc(I)cc1)[C@H]1CC[C@H]2[C@@H]3CC[C@H]4N(C)C(=O)CC[C@]4(C)[C@H]3CC[C@]12C`: the inhibition is 39%. Same read-out and setting: as for `CCCCCCCCCCCCN(C(=O)c1ccc(CCl)cc1)[C@H]1CC[C@H]2[C@@H]3CC[C@H]4N(C)C(=O)CC[C@]4(C)[C@H]3CC[C@]12C`, the figure is 33%; as for `CCCCCCCCCCN(C(=O)c1c(F)cccc1F)[C@H]1CC[C@H]2[C@@H]3CC[C@H]4N(C)C(=O)CC[C@]4(C)[C@H]3CC[C@]12C`, 77%; as for `CCCCCCCCCCCCN(C(=O)c1ccc(F)cc1)[C@H]1CC[C@H]2[C@@H]3CC[C@H]4N(C)C(=O)CC[C@]4(C)[C@H]3CC[C@]12C`, 47%. On to `CCCCCCCN(C(=O)c1ccc(Br)cc1)[C@H]1CC[C@H]2[C@@H]3CC[C@H]4N(C)C(=O)CC[C@]4(C)[C@H]3CC[C@]12C`, for which the inhibition is 68%. The compound `CCCCCCCCCCCCN(C(=O)c1ccccc1Cl)[C@H]1CC[C@H]2[C@@H]3CC[C@H]4N(C)C(=O)CC[C@]4(C)[C@H]3CC[C@]12C` had an inhibition of 46%. As for `CCCCCCCc1ccc(C(=O)N(CCCCCCC)[C@H]2CC[C@H]3[C@@H]4CC[C@H]5N(C)C(=O)CC[C@]5(C)[C@H]4CC[C@]23C)cc1`, the inhibition came out at 24%. For the compound `CCCCCCCCCCN(C(=O)c1c(F)cccc1C(F)(F)F)[C@H]1CC[C@H]2[C@@H]3CC[C@H]4N(C)C(=O)CC[C@]4(C)[C@H]3CC[C@]12C`, the inhibition was 19%. Compound `CCCCCCCCCCN(C(=O)c1ccccc1Cl)[C@H]1CC[C@H]2[C@@H]3CC[C@H]4N(C)C(=O)CC[C@]4(C)[C@H]3CC[C@]12C` showed an inhibition of 37%. Take `CCCCCCCN(C(=O)c1ccc(C(C)(C)C)cc1)[C@H]1CC[C@H]2[C@@H]3CC[C@H]4N(C)C(=O)CC[C@]4(C)[C@H]3CC[C@]12C`: the inhibition worked out at 29%.

Compound `CCCCCCCCCCCCN(C(=O)c1c(Cl)cccc1Cl)[C@H]1CC[C@H]2[C@@H]3CC[C@H]4N(C)C(=O)CC[C@]4(C)[C@H]3CC[C@]12C` had an inhibition of 18%. Turning to `CCCCCCCCCCN(C(=O)c1cc(F)ccc1F)[C@H]1CC[C@H]2[C@@H]3CC[C@H]4N(C)C(=O)CC[C@]4(C)[C@H]3CC[C@]12C`, the inhibition amounted to 56%. On the same count and under the same terms, the figure for `CCCCCCCCCCN(C(=O)c1ccc(Br)cc1)[C@H]1CC[C@H]2[C@@H]3CC[C@H]4N(C)C(=O)CC[C@]4(C)[C@H]3CC[C@]12C` is 52%; for `CCCCCCCCCCN(C(=O)c1ccc(F)cc1F)[C@H]1CC[C@H]2[C@@H]3CC[C@H]4N(C)C(=O)CC[C@]4(C)[C@H]3CC[C@]12C` it is 80%. As for `CCCCCCCN(C(=O)c1ccc(Cl)cc1)[C@H]1CC[C@H]2[C@@H]3CC[C@H]4N(C)C(=O)CC[C@]4(C)[C@H]3CC[C@]12C`, the inhibition turned out to be 65%. Regarding `CCCCCCCN(C(=O)c1c(F)cccc1C(F)(F)F)[C@H]1CC[C@H]2[C@@H]3CC[C@H]4N(C)C(=O)CC[C@]4(C)[C@H]3CC[C@]12C`, the inhibition worked out at 49%. `CCCCCCCCCCN(C(=O)c1ccc(OC)c(C(F)(F)F)c1)[C@H]1CC[C@H]2[C@@H]3CC[C@H]4N(C)C(=O)CC[C@]4(C)[C@H]3CC[C@]12C` came in with an inhibition of 46%. `CCCCCCCN(C(=O)c1ccc(CCl)cc1)[C@H]1CC[C@H]2[C@@H]3CC[C@H]4N(C)C(=O)CC[C@]4(C)[C@H]3CC[C@]12C` showed an inhibition of 50%. With `CCCCCCCCCCN(C(=O)c1cc(F)cc(F)c1)[C@H]1CC[C@H]2[C@@H]3CC[C@H]4N(C)C(=O)CC[C@]4(C)[C@H]3CC[C@]12C`, the inhibition worked out at 38%. Regarding `CCCCCCCCCCN(C(=O)c1ccc(C#N)cc1)[C@H]1CC[C@H]2[C@@H]3CC[C@H]4N(C)C(=O)CC[C@]4(C)[C@H]3CC[C@]12C`, the inhibition came to 49%. As to `CCCCCCCN(Cc1ccccc1)[C@H]1CC[C@H]2[C@@H]3CC[C@H]4N(C)C(=O)CC[C@]4(C)[C@H]3CC[C@]12C`, the inhibition is 69%.

The compound `CCCCCCCCCCCCN(C(=O)c1ccc(OC)c(C(F)(F)F)c1)[C@H]1CC[C@H]2[C@@H]3CC[C@H]4N(C)C(=O)CC[C@]4(C)[C@H]3CC[C@]12C` returned an inhibition of 51%. As for `CCCCCCCN(C(=O)c1ccc(F)cc1F)[C@H]1CC[C@H]2[C@@H]3CC[C@H]4N(C)C(=O)CC[C@]4(C)[C@H]3CC[C@]12C`, the inhibition turned out to be 73%. On to `CCCCCCCN(C(=O)c1cc(F)ccc1F)[C@H]1CC[C@H]2[C@@H]3CC[C@H]4N(C)C(=O)CC[C@]4(C)[C@H]3CC[C@]12C`, for which the inhibition was determined as 59%.

The compound `CCCCCN(C(=O)c1ccc(Br)cc1)[C@H]1CC[C@H]2[C@@H]3CC[C@H]4N(C)C(=O)CC[C@]4(C)[C@H]3CC[C@]12C` had an inhibition of 63%. Compound `CCCCCCCN(C(=O)c1ccc(C#N)cc1)[C@H]1CC[C@H]2[C@@H]3CC[C@H]4N(C)C(=O)CC[C@]4(C)[C@H]3CC[C@]12C` yielded an inhibition of 56%. In the case of `CCCCCCCCCCN(C(=O)c1ccc(Cl)cc1)[C@H]1CC[C@H]2[C@@H]3CC[C@H]4N(C)C(=O)CC[C@]4(C)[C@H]3CC[C@]12C`, the inhibition came out at 58%. `CCCCCCCN(C(=O)c1cc(F)cc(F)c1)[C@H]1CC[C@H]2[C@@H]3CC[C@H]4N(C)C(=O)CC[C@]4(C)[C@H]3CC[C@]12C` registered an inhibition of 56%. In turn, `CCCCCCCCCCN(C(=O)c1ccc(CCl)cc1)[C@H]1CC[C@H]2[C@@H]3CC[C@H]4N(C)C(=O)CC[C@]4(C)[C@H]3CC[C@]12C` displayed an inhibition of 37%.

Compound `CCCCCCCCCCN(C(=O)c1ccc(CCCCCCC)cc1)[C@H]1CC[C@H]2[C@@H]3CC[C@H]4N(C)C(=O)CC[C@]4(C)[C@H]3CC[C@]12C` yielded an inhibition of 11%. The compound `CCCCCCCN(C(=O)c1c(Cl)cccc1Cl)[C@H]1CC[C@H]2[C@@H]3CC[C@H]4N(C)C(=O)CC[C@]4(C)[C@H]3CC[C@]12C` yielded an inhibition of 28%. `CCCCCCCCCCN(C(=O)c1c(F)c(F)c(F)c(F)c1F)[C@H]1CC[C@H]2[C@@H]3CC[C@H]4N(C)C(=O)CC[C@]4(C)[C@H]3CC[C@]12C` came in with an inhibition of 28%. The same measure, in the same setting: as for `CCCCCCCN(C(=O)c1ccc(I)cc1)[C@H]1CC[C@H]2[C@@H]3CC[C@H]4N(C)C(=O)CC[C@]4(C)[C@H]3CC[C@]12C`, the figure is 60%. Turning to `CCCCCCCN(C(=O)c1ccccc1Cl)[C@H]1CC[C@H]2[C@@H]3CC[C@H]4N(C)C(=O)CC[C@]4(C)[C@H]3CC[C@]12C`, the inhibition amounted to 37%. `CCCCCCCN(CC1CCCCC1)[C@H]1CC[C@H]2[C@@H]3CC[C@H]4N(C)C(=O)CC[C@]4(C)[C@H]3CC[C@]12C`: the inhibition amounted to 45%. The same measure, in the same setting: as for `CCCCCCCCCCCCN(C(=O)c1cccc(CCl)c1)[C@H]1CC[C@H]2[C@@H]3CC[C@H]4N(C)C(=O)CC[C@]4(C)[C@H]3CC[C@]12C`, the figure is 45%; as for `CCCCCCCCCCN(C(=O)c1ccc(C(C)(C)C)cc1)[C@H]1CC[C@H]2[C@@H]3CC[C@H]4N(C)C(=O)CC[C@]4(C)[C@H]3CC[C@]12C`, 4%.

In turn, `CCCCCCCCCCCCN(C(=O)c1ccc(Br)cc1)[C@H]1CC[C@H]2[C@@H]3CC[C@H]4N(C)C(=O)CC[C@]4(C)[C@H]3CC[C@]12C` yielded an inhibition of 52%. Consider `CCCCCCCN(C(=O)c1cccc(CCl)c1)[C@H]1CC[C@H]2[C@@H]3CC[C@H]4N(C)C(=O)CC[C@]4(C)[C@H]3CC[C@]12C`, for which the inhibition turned out to be 24%. The same measure, in the same setting: as for `CCCCCCCCCCN(C(=O)c1c(Cl)cccc1Cl)[C@H]1CC[C@H]2[C@@H]3CC[C@H]4N(C)C(=O)CC[C@]4(C)[C@H]3CC[C@]12C`, the figure is 36%.

`CCCCCCCN(C(=O)c1c(F)c(F)c(F)c(F)c1F)[C@H]1CC[C@H]2[C@@H]3CC[C@H]4N(C)C(=O)CC[C@]4(C)[C@H]3CC[C@]12C` yielded an inhibition of 67%. In the case of `CCCCCCCN(C(=O)c1ccccc1)[C@H]1CC[C@H]2[C@@H]3CC[C@H]4N(C)C(=O)CC[C@]4(C)[C@H]3CC[C@]12C`, the inhibition is 56%.

`CCCCCCCN(C(=O)c1ccc(OC)c(C(F)(F)F)c1)[C@H]1CC[C@H]2[C@@H]3CC[C@H]4N(C)C(=O)CC[C@]4(C)[C@H]3CC[C@]12C` displayed an inhibition of 59%. On to `CCCCCCCCCCCCN(C(=O)c1ccc(C#N)cc1)[C@H]1CC[C@H]2[C@@H]3CC[C@H]4N(C)C(=O)CC[C@]4(C)[C@H]3CC[C@]12C`, for which the inhibition turned out to be 51%.

`CCCCCCCCCCCCN(C(=O)c1ccc(Cl)cc1)[C@H]1CC[C@H]2[C@@H]3CC[C@H]4N(C)C(=O)CC[C@]4(C)[C@H]3CC[C@]12C` returned an inhibition of 40%. Regarding `CCCCCCCCCCN(C(=O)c1cccc(CCl)c1)[C@H]1CC[C@H]2[C@@H]3CC[C@H]4N(C)C(=O)CC[C@]4(C)[C@H]3CC[C@]12C`, the inhibition came to 30%.

The target of another test is T1, 3-keto-steroid reductase/17-beta-hydroxysteroid dehydrogenase 7 (Homo sapiens). Particulars: HEK293, at 3 µM.
Description: Inhibition of human 17beta-HSD7 expressed in HEK293 cells assessed as inhibition of reduction of [14C]estrone into [14C]estradiol at 3 uM after 7 hrs
With `C[C@]12CC[C@@H]3c4ccc(O)cc4CC[C@H]3[C@@H]1CC[C@H]2O`, the inhibition was 0%. `C[C@]12CCC(=O)C[C@@H]1CC[C@@H]1[C@@H]2CC[C@@]2(C)[C@H]1CC[C@]2(O)C(=O)CO` yielded an inhibition of 13.4%. `CC(C)(O)C(=O)Nc1ccc([N+](=O)[O-])c(C(F)(F)F)c1` registered an inhibition of 8.2%. With `C[C@]12CC[C@@H](O)C[C@@H]1CC[C@@H]1[C@@H]2CC[C@]2(C)C(=O)CC[C@@H]12`, the inhibition was 2.2%. Turning to `C[C@]12CC[C@H]3C(=CCc4cc(O)ccc43)[C@@H]1CCC2=O`, the inhibition was 0%. `CCC(=C(c1ccc(O)cc1)c1ccc(OCCN(C)C)cc1)c1ccccc1` came in with an inhibition of 3%. Consider `CC1(C)CC[C@@]2(CC[C@H]3[C@@H]4CCc5ccccc5[C@H]4CC[C@@]32C)OC1=O`, for which the inhibition stood at 18.6%.
